Assay results: patent publication US7501430B2 (ArQule, Inc., priority 2006, dated 2009)

Target: T1, mutant B-RAF (Homo sapiens, UniProt P15056, V600E)
T1 construct: purchased Upstate (Charlottesville, Va.)
Experiment: RAF biochemical assay (MEK-1 phosphorylation, anti-phospho MEK1/2 detection)
Conditions: read-out: Mutant B-RAF IC50
How it was run: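 Detection is by ELISA: after a 30 min room-temperature reaction, plate-captured GST-MEK-1 is probed with anti-phospho MEK1/2, then an AP-tagged secondary antibody with fluorescent Attophos read-out.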

T1 sequence (P15056 whole entry V600E): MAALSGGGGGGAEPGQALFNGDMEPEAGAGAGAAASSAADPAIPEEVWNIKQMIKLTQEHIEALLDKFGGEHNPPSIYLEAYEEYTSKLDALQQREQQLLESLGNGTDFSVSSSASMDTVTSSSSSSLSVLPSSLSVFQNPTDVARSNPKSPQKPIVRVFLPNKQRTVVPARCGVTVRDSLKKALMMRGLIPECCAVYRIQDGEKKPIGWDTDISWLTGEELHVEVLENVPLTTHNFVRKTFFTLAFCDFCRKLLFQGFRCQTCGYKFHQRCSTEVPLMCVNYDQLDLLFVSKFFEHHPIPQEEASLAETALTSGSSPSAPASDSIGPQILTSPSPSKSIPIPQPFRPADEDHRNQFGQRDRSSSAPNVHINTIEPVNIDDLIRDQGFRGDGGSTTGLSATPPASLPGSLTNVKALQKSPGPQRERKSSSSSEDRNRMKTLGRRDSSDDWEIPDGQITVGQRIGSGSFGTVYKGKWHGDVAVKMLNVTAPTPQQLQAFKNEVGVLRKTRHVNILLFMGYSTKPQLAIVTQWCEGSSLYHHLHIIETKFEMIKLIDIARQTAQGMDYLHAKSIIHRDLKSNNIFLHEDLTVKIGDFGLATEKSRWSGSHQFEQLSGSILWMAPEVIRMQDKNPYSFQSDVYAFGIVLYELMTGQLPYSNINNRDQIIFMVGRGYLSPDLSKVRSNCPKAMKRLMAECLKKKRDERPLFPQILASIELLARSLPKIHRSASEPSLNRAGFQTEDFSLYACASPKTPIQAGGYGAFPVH

SMILES	IC50 [nM]
Oc1cccc(-c2nc3sccn3c2-c2ccnc(N[C@@H]3CCCN(CC(O)COc4ccc(Cl)cc4)C3)n2)c1 (stereo partly drawn) [Example 331, 3-{5-[2-({(3R)-1-[3-(4-chlorophenoxy)-2-hydroxypropyl]piperidin-3-yl}amino)pyrimidin-4-yl]imidazo[2,1-b][1,3]thiazol-6-yl}phenol]	1040
CS(=O)(=O)N1CCC(Nc2nccc(-c3c(-c4cccc(O)c4)nc4sccn34)n2)CC1 [Example 332, 3-[5-(2-{[1-(methylsulfonyl)piperidin-4-yl]amino}pyrimidin-4-yl)imidazo[2,1-b][1,3]thiazol-6-yl}phenol]	10
Oc1cccc(-c2nc3occn3c2-c2ccnc(N[C@@H]3CCCNC3)n2)c1 [Example 333, 3-(5-{2-[(3R)-piperidin-3-ylamino]pyrimidin-4-yl}imidazo[2,1-b][1,3]oxazol-6-yl}phenol]	906
CC(C)NC(=O)N1CCC[C@@H](Nc2nccc(-c3c(-c4cccc(O)c4)nc4sccn34)n2)C1 [Example 334, (3R)-3-({4-[6-(3-hydroxyphenyl)imidazo[2,1-b][1,3]thiazol-5-yl]pyrimidin-2-yl}amino)-N-isopropylpiperidine-1-carboxamide]	650
O=C(Nc1ccc(F)cc1)N1CCC[C@@H](Nc2nccc(-c3c(-c4cccc(O)c4)nc4sccn34)n2)C1 [Example 335, (3R)-N-(4-fluorophenyl)-3-({4-[6-(3-hydroxyphenyl)imidazo[2,1-b][1,3]thiazol-5-yl]pyrimidin-2-yl}amino)piperidine-1-carboxamide]	3260
O=C(NS(=O)(=O)c1ccc(Cl)cc1)N1CCC(Nc2nccc(-c3c(-c4cccc(O)c4)nc4sccn34)n2)CC1 [Example 336, N-[(4-chlorophenyl)sulfonyl]-4-({4-[6-(3-hydroxyphenyl)imidazo[2,1-b][1,3]thiazol-5-yl]pyrimidin-2-yl}amino)piperidine-1-carboxamide]	1050
COc1cccc(-c2nc3occn3c2-c2ccnc(NC3CCNCC3)n2)c1 [Example 337, 4-[6-(3-methoxyphenyl)imidazo[2,1-b][1,3]oxazol-5-yl]-N-piperidin-4-ylpyrimidin-2-amine]	3210
COc1cccc(-c2nc3occn3c2-c2ccnc(NC3CCN(S(=O)(=O)C4CC4)CC3)n2)c1 [Example 338, N-[1-(cyclopropylsulfonyl)piperidin-4-yl]-4-[6-(3-methoxyphenyl)imidazo[2,1-b][1,3]oxazol-5-yl]pyrimidin-2-amine]	6990
O=S(=O)(C1CC1)N1CCC(Nc2nccc(-c3c(-c4cccc(O)c4)nc4occn34)n2)CC1 [Example 339, 3-[5-(2-{[1-(cyclopropylsulfonyl)piperidin-4-yl]amino}pyrimidin-4-yl)imidazo[2,1-b][1,3]oxazol-6-yl]phenol]	46
O=C(OC[C@H](O)CO)c1ccc(S(=O)(=O)N2CCC[C@@H](Nc3nccc(-c4c(-c5cccc(O)c5)nc5sccn45)n3)C2)cc1 [Example 341, (2R)-2,3-dihydroxypropyl 4-{[(3R)-3-({4-[6-(3-hydroxyphenyl)imidazo[2,1-b][1,3]thiazol-5-yl]pyrimidin-2-yl}amino)piperidin-1-yl]sulfonyl}benzoate]	33
CS(=O)(=O)N1CCC(Nc2nccc(-c3c(-c4cccc(O)c4)nc4occn34)n2)CC1 [Example 342, 3-[5-(2-{[1-(methylsulfonyl)piperidin-4-yl]amino}pyrimidin-4-yl)imidazo[2,1-b][1,3]oxazol-6-yl]phenol]	258
O=C(Nc1ccc(O)cc1)N1CCC[C@@H](Nc2nccc(-c3c(-c4cccc(O)c4)nc4sccn34)n2)C1 [Example 343, (3R)-N-(4-hydroxyphenyl)-3-({4-[6-(3-hydroxyphenyl)imidazo[2,1-b][1,3]thiazol-5-yl]pyrimidin-2-yl}amino)piperidine-1-carboxamide]	1440
CSc1ccc(NC(=O)N2CCC[C@@H](Nc3nccc(-c4c(-c5cccc(O)c5)nc5sccn45)n3)C2)cc1 [Example 344, (3R)-3-({4-[6-(3-hydroxyphenyl)imidazo[2,1-b][1,3]thiazol-5-yl]pyrimidin-2-yl}amino)-N-[4-(methylthio)phenyl]piperidine-1-carboxamide]	2450
CS(=O)(=O)Nc1cccc(-c2nc3sccn3c2-c2ccnc(N[C@@H]3CCCN(S(=O)(=O)c4ccc(Cl)cc4)C3)n2)c1 [Example 346, N-(3-{5-[2-({(3R)-1-[(4-chlorophenyl)sulfonyl]piperidin-3-yl}amino)pyrimidin-4-yl]imidazo[2,1-b][1,3]thiazol-6-yl}phenyl)methanesulfonamide]	880
CCNC(=O)Nc1cccc(-c2nc3sccn3c2-c2ccnc(N[C@@H]3CCCN(S(=O)(=O)c4ccc(Cl)cc4)C3)n2)c1 [Example 347, 1-(3-{5-[2-({(3R)-1-[(4-chlorophenyl)sulfonyl]piperidin-3-yl}amino)pyrimidin-4-yl]imidazo[2,1-b][1,3]thiazol-6-yl}phenyl)-3-ethyl urea]	546
COc1cc(-c2nc3sccn3c2-c2ccnc(N[C@@H]3CCCN(S(=O)(=O)c4ccc(Cl)cc4)C3)n2)ccc1F [Example 348, N-{(3R)-1-[(4-chlorophenyl)sulfonyl]piperidin-3-yl}-4-[6-(4-fluoro-3-methoxyphenyl)imidazo[2,1-b][1,3]thiazol-5-yl]pyrimidin-2-amine]	105
COc1cc(-c2nc3sccn3c2-c2ccnc(NC3CCN(S(=O)(=O)C4CC4)CC3)n2)ccc1F [Example 349, N-[1-(cyclopropylsulfonyl)piperidin-4-yl]-4-[6-(4-fluoro-3-methoxyphenyl)imidazo[2,1-b][1,3]thiazol-5-yl]pyrimidin-2-amine]	2600
NC(=O)c1cccc(-c2nc3sccn3c2-c2ccnc(N[C@@H]3CCCN(S(=O)(=O)c4ccc(Cl)cc4)C3)n2)c1 [Example 350, 3-{5-[2-({(3R)-1-[(4-chlorophenyl)sulfonyl]piperidin-3-yl}amino)pyrimidin-4-yl]imidazo[2,1-b][1,3]thiazol-6-yl}benzamide]	140
CC(C)NC(=O)N1CCC(Nc2nccc(-c3c(-c4cccc(O)c4)nc4sccn34)n2)CC1 [Example 351, 4-({4-[6-(3-hydroxyphenyl)imidazo[2,1-b][1,3]thiazol-5-yl]pyrimidin-2-yl}amino)-N-isopropylpiperidine-1-carboxamide]	940
CNC(=O)N1CCC(Nc2nccc(-c3c(-c4cccc(O)c4)nc4sccn34)n2)CC1 [Example 352, 4-({4-[6-(3-hydroxyphenyl)imidazo[2,1-b][1,3]thiazol-5-yl]pyrimidin-2-yl}amino)-N-methylpiperidine-1-carboxamide]	670
O=S(=O)(c1ccc(Cl)cc1)N1CCC[C@@H](Nc2nccc(-c3c(-c4ccc(F)c(O)c4)nc4sccn34)n2)C1 [Example 353, 5-{5-[2-({(3R)-1-[(4-chlorophenyl)suifonyl]piperidin-3-yl}amino)pyrimidin-4-yl]imidazo[2,1-b][1,3]thiazol-6-yl}-2-fluorophenol]	3
O=S(=O)(C1CC1)N1CCC(Nc2nccc(-c3c(-c4ccc(F)c(O)c4)nc4sccn34)n2)CC1 [Example 354, 5-[5-(2-{[1-(cyclopropylsulfonyl)piperidin-4-yl]amino}pyrimidin-4-yl)imidazo[2,1-b][1,3]thiazol-6-yl]-2-fluorophenol]	0.03
CCCNC(=O)N1CCC(Nc2nccc(-c3c(-c4cccc(O)c4)nc4sccn34)n2)CC1 [Example 355, 4-({4-[6-(3-hydroxyphenyl)imidazo[2,1-b][1,3]thiazol-5-yl]pyrimidin-2-yl}amino)-N-propylpiperidine-1-carboxamide]	1790
O=C(NC1CCCC1)N1CCC(Nc2nccc(-c3c(-c4cccc(O)c4)nc4sccn34)n2)CC1 [Example 356, N-cyclopentyl-4-({4-[6-(3-hydroxyphenyl)imidazo[2,1-b][1,3]thiazol-5-yl]pyrimidin-2-yl}amino)piperidine-1-carboxamide]	2540
N#Cc1ccc(-c2nc3sccn3c2-c2ccnc(N[C@@H]3CCCN(S(=O)(=O)c4ccc(Cl)cc4)C3)n2)cc1 [Example 360, 4-{5-[2-({(3R)-1-[(4-chlorophenyl)sulfonyl]piperidin-3-yl}amino)pyrimidin-4-yl]imidazo[2,1-b][1,3]thiazol-6-yl}benzonitrile]	2470
CCOC(=O)c1ccc(-c2nc3sccn3c2-c2ccnc(N[C@@H]3CCCN(S(=O)(=O)c4ccc(Cl)cc4)C3)n2)cc1 [Example 361, ethyl 4-{5-[2-({(3R)-1-[(4-chlorophenyl)sulfonyl]piperidin-3-yl}amino)pyrimidin-4-yl]imidazo[2,1-b][1,3]thiazol-6-yl}benzoate]	3250
NC(=O)Oc1cccc(-c2nc3sccn3c2-c2ccnc(N[C@@H]3CCCN(S(=O)(=O)c4ccc(Cl)cc4)C3)n2)c1 [Example 364, 3-{5-[2-({(3R)-1-[(4-chlorophenyl)sulfonyl]piperidin-3-yl}amino)pyrimidin-4-yl]imidazo[2,1-b][1,3]thiazol-6-yl}phenyl carbamate]	7
Cc1nc(-c2cccc(-c3nc4sccn4c3-c3ccnc(N[C@@H]4CCCNC4)n3)c2)no1 [Example 365, 4-{6-[3-(5-methyl-1,2,4-oxadia-zol-3-yl)phenyl]imidazo[2,1-b][1,3]thiazol-5-yl}-N-[(3R)-piperidin-3-yl]pyrimidin-2-amine]	30
Cn1cnc(S(=O)(=O)N2CCC[C@@H](Nc3nccc(-c4c(-c5cccc(O)c5)nc5sccn45)n3)C2)c1 [Example 366, 3-{5-[2-({(3R)-1-[(1-methyl-1H-imidazol-4-yl)sulfonyl]piperidin-3-yl}amino)pyrimidin-4-yl]imidazo[2,1-b][1,3]thiazol-6-yl}phenol]	11
O=S(=O)(c1ccsc1)N1CCC[C@@H](Nc2nccc(-c3c(-c4cccc(O)c4)nc4sccn34)n2)C1 [Example 367, 3-[5-(2-{[(3R)-1-(3-thienylsulfonyl)piperidin-3-yl]amino}pyrimidin-4-yl)imidazo[2,1-b][1,3]thiazol-6-yl]phenol]	3
